# Reference: US20050069532A1, “Treatment of bacterial infection with elastase” (priority 2002, published 2005)
# Residues, ends and D or L forms follow the SMILES beside them. *: point of attachment. MeOSuc = COC(=O)CCC(=O)*; CH2Cl = ClC*
# T1: Neutrophil elastase (Homo sapiens, UniProt P08246)
# T1 sequence (P08246 30-267): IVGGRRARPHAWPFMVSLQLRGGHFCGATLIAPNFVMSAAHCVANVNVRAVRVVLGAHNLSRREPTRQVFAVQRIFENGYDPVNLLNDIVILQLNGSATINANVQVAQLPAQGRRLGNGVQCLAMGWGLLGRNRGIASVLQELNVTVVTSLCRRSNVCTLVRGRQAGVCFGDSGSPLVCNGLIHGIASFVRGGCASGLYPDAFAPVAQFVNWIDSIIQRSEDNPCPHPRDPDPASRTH
# B1: SLPI: physiologic inhibitor, human Secretory Leukocyte Protease Inhibitor (protein, UniProt P03973 26-132, looked up)
# Antileukoproteinase: SGKSFKAGVCPPKKSAQCLRYKKPECQSDWQCPGKKRCCPDTCGIKCLDPVDTPNPTRRKPGKCPVTYGQCLMLNPPNFCEMDGQCKRDLKCCMGMCGKSCVSPVKA
# Tests used:
# [1] = biological target: neutrophil elastase in hNEGP (Homo sapiens, UniProt P08246); assay type: biochemical
# Neutrophil elastase [2] = biological target: T1, Neutrophil elastase; assay: Neutrophil elastase enzymatic assay in hNEGP (N-methoxysuccinyl-Ala-Ala-Pro-Val-p-nitroanilide substrate); conditions: hNEGP pretreated with inhibitor (PMSF 1 mM, rm temp 20 min)
# Method: Neutrophil elastase activity of intact neutrophils was determined as previously described (Huang et al., “Effect of Trifluoromethyl Ketone-Based Elastase Inhibitors on Neutrophil Function in Vitro,” J Leukoc Biol 64:322-330 (1998), which is hereby incorporated by reference).
# neutrophils [3] = assay: Cytotoxicity of inhibitor by lactate dehydrogenase (LDH) release
# [4] = tested on: human neutrophils infected with Shigella; assay type: cell-based; conditions: 20 μM
# neutrophils [5] = conditions: cited from earlier work
# [6] = tested on: human neutrophils infected with wild type Shigella; assay type: cell-based; conditions: 20 μM, 10 bacteria/neutrophil
# [7] = tested on: human neutrophils infected with Shigella; conditions: 20 μM, LDH release after 2 h incubation
# [8] = tested on: wild-type Shigella flexneri (M90T); assay type: cell-based
# [9] = tested on: OmpA of nonpathogenic Escherichia coli; conditions: 4 h with 106 bacteria; cited from earlier work
# MxiA and MxiD = assay type: biochemical, Shigella
# [10] = tested on: Secreted proteins from wild type Salmonella typhimurium (strain SL1344); assay type: biochemical
# [11] = tested on: Secreted proteins from Shigella; assay type: biochemical
# [12] = tested on: Shigella virulence proteins (IpaA, IpaB, IpaC, IcsA); assay type: biochemical, Shigella flexneri
# Cathepsin G = conditions: cited from earlier work
# neutrophil elastase [13] = conditions: cited from earlier work
# Proteinase 3 = conditions: cited from earlier work
# OmpA of nonpathogenic Escherichia coli, sequence (P0A910 22-346): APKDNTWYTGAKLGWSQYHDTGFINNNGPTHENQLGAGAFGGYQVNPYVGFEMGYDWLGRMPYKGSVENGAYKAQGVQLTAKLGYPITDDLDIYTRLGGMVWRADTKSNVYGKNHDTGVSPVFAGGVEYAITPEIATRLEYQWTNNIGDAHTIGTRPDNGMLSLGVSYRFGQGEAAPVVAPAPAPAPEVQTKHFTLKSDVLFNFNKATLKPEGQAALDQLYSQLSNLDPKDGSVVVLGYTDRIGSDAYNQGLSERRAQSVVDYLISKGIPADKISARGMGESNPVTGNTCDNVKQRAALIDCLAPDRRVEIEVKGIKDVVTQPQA
# InvG, sequence (P35672 25-562): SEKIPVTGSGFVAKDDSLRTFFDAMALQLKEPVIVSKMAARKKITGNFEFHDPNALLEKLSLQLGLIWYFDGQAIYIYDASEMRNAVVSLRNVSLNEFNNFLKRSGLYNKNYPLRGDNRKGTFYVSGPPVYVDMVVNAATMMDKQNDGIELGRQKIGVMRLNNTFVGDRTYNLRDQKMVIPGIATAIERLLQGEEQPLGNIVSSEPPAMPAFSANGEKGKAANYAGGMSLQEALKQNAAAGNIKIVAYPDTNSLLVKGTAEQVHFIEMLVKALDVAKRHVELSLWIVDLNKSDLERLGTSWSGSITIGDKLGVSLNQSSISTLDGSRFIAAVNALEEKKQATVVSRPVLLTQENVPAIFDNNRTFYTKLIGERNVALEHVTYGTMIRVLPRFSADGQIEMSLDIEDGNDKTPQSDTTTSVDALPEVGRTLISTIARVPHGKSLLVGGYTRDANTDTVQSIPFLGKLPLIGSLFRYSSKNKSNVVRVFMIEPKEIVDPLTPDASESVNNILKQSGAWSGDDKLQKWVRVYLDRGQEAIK
molecule,measurement,setting,value
"COC(=O)CCC(=O)N[C@@H](C)C(=O)N[C@@H](C)C(=O)N1CCC[C@H]1C(=O)N[C@H](C(=O)CCl)C(C)C [MeOSuc-AAPV-cmk, MeOSucAlaAlaProVal-chloromethyl ketone] (MeOSuc-AAPV-CH2Cl)","blocking of hNEGP degradation of IpaA, B, C and IcsA",[1],effectively blocked degradation
same,inhibition of neutrophil elastase activity in hNEGP,Neutrophil elastase [2],completely inhibited
"O=S(=O)(F)Cc1ccccc1 [PMSF, phenylmethylsulfonyl fluoride]","blocking of hNEGP degradation of IpaA, B, C and IcsA",[1],blocked the degradation
same,inhibition of neutrophil elastase activity in hNEGP,Neutrophil elastase [2],completely inhibited
CC(C)C(NC(=O)[C@@H]1CCCN1C(=O)[C@@H](NC(=O)c1ccc(C(=O)NS(=O)(=O)c2ccc(Br)cc2)cc1)C(C)C)C(=O)C(F)(F)F (stereo partly drawn) [ICI-200355],cytotoxicity (LDH release),neutrophils [3],not cytotoxic
same,location of non-invasive Shigella strain in neutrophils incubated with inhibitor,[4],remained in the phagosome
same,location of wild type Shigella in neutrophils pre-incubated with inhibitor,[4]; fixed 30 min post-infection,free in the cytoplasm
same,effect on ingestion or killing of non-virulent bacteria,neutrophils [5],does not affect
same,Shigella survival in inhibitor-treated neutrophils versus controls,[6],survived indeed better
same,neutrophil cell death with noninvasive Shigella control strains after inhibitor pretreatment,[7],no cell death
neutrophil elastase,neutrophil elastase concentration affecting bacterial viability,[8],"> 2,000 nM"
same,neutrophil elastase concentration that partially digests OmpA,[9],2 µM
same,degradation of InvG,InvG,not degraded
same,degradation of MxiA and MxiD,MxiA and MxiD,not degraded
same,degradation of FliB and FliC,[10],not degraded
same,"degradation of SipA, B, C and HAPs",[10],degraded
same,cleavage of proteins not associated with virulence (SepA and OspF),[11],remained intact
same,cleavage of virulence factors (e.g. VirA and the Ipas),[11],cleaved
same,degradation of OmpA in Shigella or E. coli,[12],not degraded
same,neutrophil elastase concentration at which IcsA was degraded,[12],1.2 nM
same,neutrophil elastase concentration that cleaved Shigella virulence proteins significantly,[12],≥ 1.2 nM
Cathepsin G,degradation of Shigella effectors,[12],did not degrade
B1,block of Cathepsin G,Cathepsin G,blocks
same,"blocking of hNEGP degradation of IpaA, B, C and IcsA",[1],effectively blocked degradation
same,block of neutrophil elastase,neutrophil elastase [13],blocks
same,block of Proteinase 3,Proteinase 3,not
same,inhibition of neutrophil elastase activity in hNEGP,Neutrophil elastase [2],completely inhibited
